Measured values taken from ChEMBL document CHEMBL4819127, “Syntheses and antimicrobial activities of ogipeptin derivatives” (Bioorg Med Chem Lett, 2021).
Values after ≈ are worked out from the molar mass of the structure shown. Active and inactive are the calls of the source. The calls are words filed in the database; no cut-off is given here.

Legend:
Pseudomonas aeruginosa [1] = test: Antibacterial activity against multidrug resistance Pseudomonas aeruginosa; assay type: functional, organism-based
Escherichia coli [2] = test: Antibacterial activity against Escherichia coli; assay type: functional, organism-based
Acinetobacter = test: Antibacterial activity against Acinetobacter sp.; assay type: functional, organism-based
Klebsiella pneumoniae [3] = test: Antibacterial activity against Klebsiella pneumoniae; assay type: functional, organism-based
Escherichia coli [4] = test: Antibacterial activity against Escherichia coli ATCC 47076 assessed as bacterial growth inhibition; assay type: functional
Klebsiella pneumoniae [5] = test: Antibacterial activity against Klebsiella pneumoniae ATCC 10031 assessed as bacterial growth inhibition; assay type: functional
Acinetobacter baumannii [6] = test: Antibacterial activity against Acinetobacter baumannii ATCC 19606 assessed as bacterial growth inhibition; assay type: functional; conditions: ATCC 19606 = CIP 70.34 = JCM 6841
Pseudomonas aeruginosa [7] = test: Antibacterial activity against Pseudomonas aeruginosa ATCC 27853 assessed as bacterial growth inhibition; assay type: functional
Klebsiella pneumoniae [8] = test: Antibacterial activity against Klebsiella pneumoniae ATCC 700721 assessed as bacterial growth inhibition; assay type: functional
Klebsiella pneumoniae [9] = test: Antibacterial activity against Klebsiella pneumoniae JCM 1662 assessed as bacterial growth inhibition; assay type: functional
Pseudomonas aeruginosa [10] = test: Antibacterial activity against Pseudomonas aeruginosa ATCC 15692 assessed as bacterial growth inhibition; assay type: functional
Klebsiella pneumoniae [11] = test: Antibacterial activity against Klebsiella pneumoniae IHMA 1387833 assessed as bacterial growth inhibition; assay type: functional
Acinetobacter baumannii [12] = test: Antibacterial activity against Acinetobacter baumannii IHMA 1312713 assessed as bacterial growth inhibition; assay type: functional
Pseudomonas aeruginosa [13] = test: Antibacterial activity against Pseudomonas aeruginosa IHMA 1375891 assessed as bacterial growth inhibition; assay type: functional
[14] = Cytotoxicity against HEK293 cells; assay type: cell-based; conditions: human, HEK293 cells
HepG2 = test: Cytotoxicity against human HepG2 cells; assay type: functional

Row | Molecule | Activity (Pseudomonas aeruginosa [1]) | Activity (Escherichia coli [2]) | Activity (Acinetobacter) | Activity (Klebsiella pneumoniae [3]) | MIC (Escherichia coli [4]) [µg/mL] | MIC (Klebsiella pneumoniae [5]) [µg/mL] | MIC (Acinetobacter baumannii [6]) [µg/mL] | MIC (Pseudomonas aeruginosa [7]) [µg/mL] | MIC (Klebsiella pneumoniae [8]) [µg/mL] | MIC (Klebsiella pneumoniae [9]) [µg/mL] | MIC (Pseudomonas aeruginosa [10]) [µg/mL] | MIC (Klebsiella pneumoniae [11]) [µg/mL] | MIC (Acinetobacter baumannii [12]) [µg/mL] | MIC (Pseudomonas aeruginosa [13]) [µg/mL] | CC50 [14] [µM] | CC50 (HepG2) [µM]
1 | C/C=C1\NC(=O)C(NC(=O)CCCCCCCCCCC)C(O)CNC(=O)C(C(O)CN)NC(=O)C(C(O)CN)NC(=O)[C@H](CCCNC(=N)N)NC[C@H](CC(C)C)NC(=O)[C@H](CCN)NC1=O (stereo partly specified) | Active | Active | inactive | inactive |  |  |  |  |  |  |  |  |  |  |  | 
2 | C/C=C1\NC(=O)C(NC(=O)CCCCC/C=C\CCCCCC)C(O)CNC(=O)C(C(O)CN)NC(=O)C(C(O)CN)NC(=O)[C@H](CCCNC(=N)N)NC[C@H](CC(C)C)NC(=O)[C@H](CCN)NC1=O (stereo partly specified) | Active | Active | inactive | inactive |  |  |  |  |  |  |  |  |  |  |  | 
3 | C/C=C1\NC(=O)C(NC(=O)c2ccc(NS(=O)(=O)Cc3ccccc3)cc2)C(O)CNC(=O)C(C(O)CN)NC(=O)C(C(O)CN)NC(=O)[C@H](CCCNC(=N)N)NC(=O)[C@H](CC(C)C)NC(=O)[C@H](CCN)NC1=O (stereo partly specified) |  |  |  |  | 16 (≈ 14.9 µM) | 128 (≈ 119 µM) | > 256 | 256 (≈ 238 µM) | > 256 | > 256 | > 256 | > 256 | > 256 | > 256 | > 64 | > 64
4 | C/C=C1\NC(=O)C(NC(=O)c2cn3c4c(c(N5CCN(C)CC5)c(F)cc4c2=O)OC[C@@H]3C)C(O)CNC(=O)C(C(O)CN)NC(=O)C(C(O)CN)NC(=O)[C@H](CCCNC(=N)N)NC(=O)[C@H](CC(C)C)NC(=O)[C@H](CCN)NC1=O (stereo partly specified) |  |  |  |  | 128 (≈ 112 µM) | 64 (≈ 55.9 µM) | > 128 | 32 (≈ 28 µM) | > 256 | > 128 | > 128 | > 256 | > 128 | > 128 | > 64 | > 64
5 | C/C=C1\NC(=O)C(NC(=O)CCc2nnc(-c3ccc(OC)cc3)[nH]2)C(O)CNC(=O)C(C(O)CN)NC(=O)C(C(O)CN)NC(=O)[C@H](CCCNC(=N)N)NC(=O)[C@H](CC(C)C)NC(=O)[C@H](CCN)NC1=O (stereo partly specified) |  |  |  |  | 2 (≈ 1.94 µM) | 8 (≈ 7.77 µM) | > 256 | 8 (≈ 7.77 µM) | 16 (≈ 15.5 µM) | > 256 | > 256 | > 256 | > 256 | > 256 | > 64 | > 64
6 | C/C=C1\NC(=O)C(NC(=O)CCCCCCCCC)C(O)CNC(=O)C(C(O)CN)NC(=O)C(C(O)CN)NC(=O)[C@H](CCCNC(=N)N)NC[C@H](CC(C)C)NC(=O)[C@H](CCN)NC1=O (stereo partly specified) | Active | Active | inactive | inactive |  |  |  |  |  |  |  |  |  |  |  | 
7 | C/C=C1\NC(=O)C(NC(=O)CCc2nc(-c3ccc(OC)cc3)no2)C(O)CNC(=O)C(C(O)CN)NC(=O)C(C(O)CN)NC(=O)[C@H](CCCNC(=N)N)NC(=O)[C@H](CC(C)C)NC(=O)[C@H](CCN)NC1=O (stereo partly specified) |  |  |  |  | 2 (≈ 1.94 µM) | 2 (≈ 1.94 µM) | 8 (≈ 7.76 µM) | 8 (≈ 7.76 µM) | 2 (≈ 1.94 µM) | > 256 | > 256 | > 256 | > 256 | > 256 | > 64 | > 64
8 | COLISTIN |  |  |  |  | 1 | 1 | 2 | 2 | 1 | 4 | 2 | 32 | 8 | 64 |  | > 64
9 | C/C=C1\NC(=O)C(NC(=O)c2cn(-c3ccccc3)nc2-c2ccc(Cl)cc2)C(O)CNC(=O)C(C(O)CN)NC(=O)C(C(O)CN)NC(=O)[C@H](CCCNC(=N)N)NC(=O)[C@H](CC(C)C)NC(=O)[C@H](CCN)NC1=O (stereo partly specified) |  |  |  |  | 4 (≈ 3.7 µM) | 4 (≈ 3.7 µM) | 8 (≈ 7.4 µM) | 8 (≈ 7.4 µM) | > 256 | > 256 | 128 (≈ 118 µM) | > 256 | 64 (≈ 59.2 µM) | 128 (≈ 118 µM) | > 64 | > 64
10 | C/C=C1\NC(=O)C(NC(=O)CCC/C=C\CCCCCC)C(O)CNC(=O)C(C(O)CN)NC(=O)C(C(O)CN)NC(=O)[C@H](CCCNC(=N)N)NC[C@H](CC(C)C)NC(=O)[C@H](CCN)NC1=O (stereo partly specified) | Active | Active | inactive | inactive |  |  |  |  |  |  |  |  |  |  |  | 
11 | C/C=C1\NC(=O)C(NC(=O)[C@H]2CC[C@H](CNC(=O)OCc3ccccc3)CC2)C(O)CNC(=O)C(C(O)CN)NC(=O)C(C(O)CN)NC(=O)[C@H](CCCNC(=N)N)NC(=O)[C@H](CC(C)C)NC(=O)[C@H](CCN)NC1=O (stereo partly specified) |  |  |  |  | 8 (≈ 7.45 µM) | 32 (≈ 29.8 µM) | 256 (≈ 238 µM) | 8 (≈ 7.45 µM) | > 256 | > 256 | > 256 | > 256 | > 256 | > 256 | > 64 | > 64
12 | C/C=C1\NC(=O)C(NC(=O)C2CCCN(C(=O)c3ccc(Cl)c(Cl)c3)C2)C(O)CNC(=O)C(C(O)CN)NC(=O)C(C(O)CN)NC(=O)[C@H](CCCNC(=N)N)NC(=O)[C@H](CC(C)C)NC(=O)[C@H](CCN)NC1=O (stereo partly specified) |  |  |  |  | 8 (≈ 7.37 µM) | > 256 | > 256 | 32 (≈ 29.5 µM) | > 256 | > 256 | > 256 | > 256 | > 256 | > 256 | > 64 | > 64
13 | C/C=C1\NC(=O)C(NC(=O)CCc2nc(-c3ccncc3)no2)C(O)CNC(=O)C(C(O)CN)NC(=O)C(C(O)CN)NC(=O)[C@H](CCCNC(=N)N)NC(=O)[C@H](CC(C)C)NC(=O)[C@H](CCN)NC1=O (stereo partly specified) |  |  |  |  | 2 (≈ 2 µM) | 8 (≈ 7.98 µM) | 256 (≈ 255 µM) | > 256 | 32 (≈ 31.9 µM) | > 256 | > 256 | > 256 | > 256 | > 256 | > 64 | > 64
14 | C/C=C1\NC(=O)C(NC(=O)C2CC3(CCN(C(=O)OC(C)(C)C)CC3)c3ccccc32)C(O)CNC(=O)C(C(O)CN)NC(=O)C(C(O)CN)NC(=O)[C@H](CCCNC(=N)N)NC(=O)[C@H](CC(C)C)NC(=O)[C@H](CCN)NC1=O (stereo partly specified) |  |  |  |  | 4 (≈ 3.59 µM) | 4 (≈ 3.59 µM) | 256 (≈ 230 µM) | 16 (≈ 14.4 µM) | > 256 | > 256 | > 256 | > 256 | > 256 | > 256 | > 64 | > 64
15 | C/C=C1\NC(=O)C(NC(=O)c2ccc(-c3cc(-c4ccc(OCCCCC)cc4)on3)cc2)C(O)CNC(=O)C(C(O)CN)NC(=O)C(C(O)CN)NC(=O)[C@H](CCCNC(=N)N)NC(=O)[C@H](CC(C)C)NC(=O)[C@H](CCN)NC1=O (stereo partly specified) |  |  |  |  | 8 (≈ 7.05 µM) | 8 (≈ 7.05 µM) | 16 (≈ 14.1 µM) | 16 (≈ 14.1 µM) | 128 (≈ 113 µM) | 256 (≈ 226 µM) | 64 (≈ 56.4 µM) | 256 (≈ 226 µM) | 32 (≈ 28.2 µM) | 128 (≈ 113 µM) |  | 35
16 | C/C=C1\NC(=O)C(NC(=O)CCCCCCCCC(=O)OCc2ccccc2)C(O)CNC(=O)C(C(O)CN)NC(=O)C(C(O)CN)NC(=O)[C@H](CCCNC(=N)N)NC(=O)[C@H](CC(C)C)NC(=O)[C@H](CCN)NC1=O (stereo partly specified) |  |  |  |  | 9 (≈ 8.37 µM) | 8 (≈ 7.44 µM) | 4 (≈ 3.72 µM) | 16 (≈ 14.9 µM) | 8 (≈ 7.44 µM) | 16 (≈ 14.9 µM) | 16 (≈ 14.9 µM) | > 256 | 128 (≈ 119 µM) | 256 (≈ 238 µM) | > 64 | > 64
17 | C/C=C1\NC(=O)C(NC(=O)Cc2ccc(NC(=O)Nc3c(C)cccc3C)c(Cl)c2)C(O)CNC(=O)C(C(O)CN)NC(=O)C(C(O)CN)NC(=O)[C@H](CCCNC(=N)N)NC(=O)[C@H](CC(C)C)NC(=O)[C@H](CCN)NC1=O (stereo partly specified) |  |  |  |  | 4 (≈ 3.59 µM) | 128 (≈ 115 µM) | > 256 | 128 (≈ 115 µM) | > 256 | > 256 | > 256 | > 256 | > 256 | > 256 | > 64 | > 64
18 | C/C=C1\NC(=O)C(NC(=O)c2ccc(-c3nnn(CC(=O)N(C)C)n3)cc2)C(O)CNC(=O)C(C(O)CN)NC(=O)C(C(O)CN)NC(=O)[C@H](CCCNC(=N)N)NC(=O)[C@H](CC(C)C)NC(=O)[C@H](CCN)NC1=O (stereo partly specified) |  |  |  |  | 16 (≈ 15.1 µM) | 256 (≈ 242 µM) | > 256 | 128 (≈ 121 µM) | > 256 | > 256 | > 256 | > 256 | > 256 | > 256 | > 64 | > 64
19 | C/C=C1\NC(=O)C(NC(=O)Cc2c(C)n(C(=O)c3ccc(Cl)cc3)c3ccc(OC)cc23)C(O)CNC(=O)C(C(O)CN)NC(=O)C(C(O)CN)NC(=O)[C@H](CCCNC(=N)N)NC(=O)[C@H](CC(C)C)NC(=O)[C@H](CCN)NC1=O (stereo partly specified) |  |  |  |  | 2 (≈ 1.75 µM) | 4 (≈ 3.51 µM) | 32 (≈ 28.1 µM) | 8 (≈ 7.01 µM) | > 256 | > 256 | 32 (≈ 28.1 µM) | > 256 | > 256 | 64 (≈ 56.1 µM) | > 64 | > 64
20 | C/C=C1\NC(=O)C(NC(=O)c2cn3c4c(c(F)c(F)cc4c2=O)OC[C@@H]3C)C(O)CNC(=O)C(C(O)CN)NC(=O)C(C(O)CN)NC(=O)[C@H](CCCNC(=N)N)NC(=O)[C@H](CC(C)C)NC(=O)[C@H](CCN)NC1=O (stereo partly specified) |  |  |  |  | 32 (≈ 30.1 µM) | > 64 | > 64 | 16 (≈ 15 µM) | 64 (≈ 60.1 µM) | > 64 | > 64 | > 64 | > 64 | > 64 | > 64 | > 64
